ChEMBL document CHEMBL1121427, “Decomposition of pharmacological activity indices into mutually independent components using principal component analysis” (J Med Chem, 1980)

Assays:
Type in all cases: functional
Design in all cases: unit not given here
[1] = tested on: Staphylococcus aureus; experiment: The compound was evaluated for activity against strain Micrococcus aureus
[2] = tested on: Streptococcus pyogenes; experiment: The compound was evaluated for activity against strain Streptococcus hemolyticus
[3] = tested on: Enterococcus faecalis; experiment: The compound was evaluated for activity against strain Streptococcus faecalis
[4] = tested on: Bacillus subtilis; experiment: Inhibitory activity against Bacillus subtilis

| SMILES | -Log C [1] | -Log C [2] | -Log C [3] | -Log C [4] |
| --- | --- | --- | --- | --- |
| COC1/C=C/OC2(C)Oc3c(C)c(O)c4c(O)c(cc(OCC(=O)N(C)C5CCCCC5)c4c3C2=O)NC(=O)/C(C)=C\C=C\C(C)C(O)C(C)C(O)C(C)C(OC(C)=O)C1C (stereo not given) | 8.15 | 7.98 | 7.53 | 6.68 |
| CCCN(CC)C(=O)COc1cc2c(O)c3c(O)c(C)c4c(c13)C(=O)C(C)(O/C=C/C(OC)C(C)C(OC(C)=O)C(C)C(O)C(C)C(O)C(C)/C=C/C=C(/C)C(=O)N2)O4 (stereo not given) | 8.01 | 8.22 | 7.22 | 6.35 |
| COC1/C=C/OC2(C)Oc3c(C)c(O)c4c(O)c(cc(OCC(=O)N5CCC(C)CC5)c4c3C2=O)NC(=O)/C(C)=C\C=C\C(C)C(O)C(C)C(O)C(C)C(OC(C)=O)C1C (stereo not given) | 8.22 | 7.92 | 7.27 | 6.36 |
| COC1/C=C/OC2(C)Oc3c(C)c(O)c4c(O)c(cc(OCC(=O)N(c5ccccc5)c5ccccc5)c4c3C2=O)NC(=O)/C(C)=C\C=C\C(C)C(O)C(C)C(O)C(C)C(OC(C)=O)C1C (stereo not given) | 8.65 | 7.55 | 7.65 | 7.05 |
| CCN(C(=O)COc1cc2c(O)c3c(O)c(C)c4c(c13)C(=O)C(C)(O/C=C/C(OC)C(C)C(OC(C)=O)C(C)C(O)C(C)C(O)C(C)/C=C/C=C(/C)C(=O)N2)O4)c1ccccc1 (stereo not given) | 8.46 | 8.16 | 7.33 | 6.37 |
| COC1/C=C/OC2(C)Oc3c(C)c(O)c4c(O)c(cc(OCC(=O)N(C)Cc5ccccc5)c4c3C2=O)NC(=O)/C(C)=C\C=C\C(C)C(O)C(C)C(O)C(C)C(OC(C)=O)C1C (stereo not given) | 8.24 | 8.16 | 7.09 | 6.37 |
| COC1/C=C/OC2(C)Oc3c(C)c(O)c4c(O)c(cc(OCC(=O)NC(C)C)c4c3C2=O)NC(=O)/C(C)=C\C=C\C(C)C(O)C(C)C(O)C(C)C(OC(C)=O)C1C (stereo not given) | 6.7 | 7.12 | 5.9 | 5.41 |
| COC1/C=C/OC2(C)Oc3c(C)c(O)c4c(O)c(cc(OCC(=O)N5CCCCCC5)c4c3C2=O)NC(=O)/C(C)=C\C=C\C(C)C(O)C(C)C(O)C(C)C(OC(C)=O)C1C (stereo not given) | 8.32 | 7.92 | 7.45 | 6.45 |
| COC1/C=C/OC2(C)Oc3c(C)c(O)c4c(O)c(cc(OCC(=O)N(CCCl)CCCl)c4c3C2=O)NC(=O)/C(C)=C\C=C\C(C)C(O)C(C)C(O)C(C)C(OC(C)=O)C1C (stereo not given) | 7.24 | 7.47 | 5.77 | 6.38 |
| CCN(C)C(=O)COc1cc2c(O)c3c(O)c(C)c4c(c13)C(=O)C(C)(O/C=C/C(OC)C(C)C(OC(C)=O)C(C)C(O)C(C)C(O)C(C)/C=C/C=C(/C)C(=O)N2)O4 (stereo not given) | 7.95 | 7.95 | 7.06 | 6.03 |
| C=CCN(CC=C)C(=O)COc1cc2c(O)c3c(O)c(C)c4c(c13)C(=O)C(C)(O/C=C/C(OC)C(C)C(OC(C)=O)C(C)C(O)C(C)C(O)C(C)/C=C/C=C(/C)C(=O)N2)O4 (stereo not given) | 8.22 | 8.44 | 7.22 | 6.67 |
| CCCNC(=O)COc1cc2c(O)c3c(O)c(C)c4c(c13)C(=O)C(C)(O/C=C/C(OC)C(C)C(OC(C)=O)C(C)C(O)C(C)C(O)C(C)/C=C/C=C(/C)C(=O)N2)O4 (stereo not given) | 6.5 | 6.42 | 5.82 | 5.41 |
| COC1/C=C/OC2(C)Oc3c(C)c(O)c4c(O)c(cc(OCC(=O)N(C)CCO)c4c3C2=O)NC(=O)/C(C)=C\C=C\C(C)C(O)C(C)C(O)C(C)C(OC(C)=O)C1C (stereo not given) | 6.93 | 7.15 | 5.85 | 5.23 |
| CCCCN(C)C(=O)COc1cc2c(O)c3c(O)c(C)c4c(c13)C(=O)C(C)(O/C=C/C(OC)C(C)C(OC(C)=O)C(C)C(O)C(C)C(O)C(C)/C=C/C=C(/C)C(=O)N2)O4 (stereo not given) | 8.44 | 8.62 | 7.22 | 6.35 |
| COC1/C=C/OC2(C)Oc3c(C)c(O)c4c(O)c(cc(OCC(=O)N(CC(C)C)CC(C)C)c4c3C2=O)NC(=O)/C(C)=C\C=C\C(C)C(O)C(C)C(O)C(C)C(OC(C)=O)C1C (stereo not given) | 8.86 | 8.16 | 7.86 | 7.28 |
| C#CCN(CCC)C(=O)COc1cc2c(O)c3c(O)c(C)c4c(c13)C(=O)C(C)(O/C=C/C(OC)C(C)C(OC(C)=O)C(C)C(O)C(C)C(O)C(C)/C=C/C=C(/C)C(=O)N2)O4 (stereo not given) | 8.44 | 8.62 | 7.14 | 6.97 |
| COC1/C=C/OC2(C)Oc3c(C)c(O)c4c(O)c(cc(OCC(=O)N(C)C5CCCC5)c4c3C2=O)NC(=O)/C(C)=C\C=C\C(C)C(O)C(C)C(O)C(C)C(OC(C)=O)C1C (stereo not given) | 8.14 | 8.22 | 7.22 | 6.36 |
| COC1/C=C/OC2(C)Oc3c(C)c(O)c4c(O)c(cc(OCC(N)=O)c4c3C2=O)NC(=O)/C(C)=C\C=C\C(C)C(O)C(C)C(O)C(C)C(OC(C)=O)C1C (stereo not given) | 5.7 | 6.62 | 4.91 | 4.78 |
| CCCN(CCC)C(=O)COc1cc2c(O)c3c(O)c(C)c4c(c13)C(=O)C(C)(O/C=C/C(OC)C(C)C(OC(C)=O)C(C)C(O)C(C)C(O)C(C)/C=C/C=C(/C)C(=O)N2)O4 (stereo not given) | 8.15 | 8.15 | 7.15 | 6.53 |
| CCN(CCO)C(=O)COc1cc2c(O)c3c(O)c(C)c4c(c13)C(=O)C(C)(O/C=C/C(OC)C(C)C(OC(C)=O)C(C)C(O)C(C)C(O)C(C)/C=C/C=C(/C)C(=O)N2)O4 (stereo not given) | 7.52 | 6.96 | 6.18 | 5.73 |
| COC1/C=C/OC2(C)Oc3c(C)c(O)c4c(O)c(cc(OCC(=O)N(Cc5ccccc5)Cc5ccccc5)c4c3C2=O)NC(=O)/C(C)=C\C=C\C(C)C(O)C(C)C(O)C(C)C(OC(C)=O)C1C (stereo not given) | 8.49 | 7.89 | 7.49 | 6.89 |
| COC1/C=C/OC2(C)Oc3c(C)c(O)c4c(O)c(cc(OCC(=O)N5CCCCC5)c4c3C2=O)NC(=O)/C(C)=C\C=C\C(C)C(O)C(C)C(O)C(C)C(OC(C)=O)C1C (stereo not given) | 8.01 | 8.22 | 6.92 | 6.04 |
| COC1/C=C/OC2(C)Oc3c(C)c(O)c4c(O)c(cc(OCC(=O)Nc5ccccc5)c4c3C2=O)NC(=O)/C(C)=C\C=C\C(C)C(O)C(C)C(O)C(C)C(OC(C)=O)C1C (stereo not given) | 6.92 | 6.84 | 6.04 | 5.43 |
| COC1/C=C/OC2(C)Oc3c(C)c(O)c4c(O)c(cc(OCC(=O)N5CCOCC5C)c4c3C2=O)NC(=O)/C(C)=C\C=C\C(C)C(O)C(C)C(O)C(C)C(OC(C)=O)C1C (stereo not given) | 7.92 | 8.36 | 6.22 | 6.67 |
| COC1/C=C/OC2(C)Oc3c(C)c(O)c4c(O)c(cc(OCC(=O)N5CCCCC5C)c4c3C2=O)NC(=O)/C(C)=C\C=C\C(C)C(O)C(C)C(O)C(C)C(OC(C)=O)C1C (stereo not given) | 8.22 | 7.92 | 7.45 | 6.67 |
